Experimental data reported in patent US20240398899A1 (priority 2021, published 2024).

Key:
Assay type in all cases: cell-based, human
SH-SY5Y neuronal cells [1] = experiment: Annexin-V staining of apoptotic cells against MPP+ iodide damage; conditions: MPP+ iodide 1 mM; for % Decrease in Apoptotic cells (wrt MPP + iodide): Annexin
Protocol: After 24 h of treatment, cells were exposed to damage (MPP+ iodide 1 mM) for 24 h. […] Untreated cells were included as control. Cells treated with Deprenyl served as positive control. After treatment, cells were harvested by trypsinization and processed for Annexin V assay as follows: Cell were gently harvested into pre-labeled sterile centrifuge tubes and centrifuged at 300×g for 5-7 min. After 24 h of treatment, cells were exposed to damage (MPP+ iodide 1 mM) for 24 h. Cells treated with MPP+ iodide alone were included as Control. Untreated cells were included as negative control. Cells treated with Deprenyl served as positive control. After treatment, cells were harvested by trypsinization and processed for Annexin V assay as follows: Cell were gently harvested into pre-labelled sterile centrifuge tubes and centrifuged at 300×g for 5-7 min. Supernatant were discarded and the pellet was resuspended in 200 μl of fresh culture medium. 100 μl of cell suspension was transferred into pre-labeled sterile centrifuge tubes. 100 μl of Annexin-V reagent was added to each tube and incubated for 30 min at RT in dark. Cells stained for Annexin-V were then transferred into 96-well plates and acquired on flow cytometer (Guava technologies). Percentage of Annexin-V positive cells was determined.
Percent inhibition in apoptotic cells=[(% Annexin positive cells in MPP+iodide alone)−(% Annexin positive cells in Recombinant Lectin having SEQ ID NO:1+MPP+iodide)/% Annexin positive cells in MPP+iodide alone]*100

SH-SY5Y neuronal cells [2] = experiment: Sub (G0/G1) cell population by PI cell cycle assay against MPP+ iodide damage; conditions: MPP + Iodide (2 mM); for % Decrease in Apoptotic cells (wrt MPP + iodide): SubG0/G1
Protocol: After incubation as in Example 2a and 2b, cells were harvested by trypsinization and processed for Cell cycle assay as follows: Cell cycle reagent contains PI stain, which stains DNA of cells in different phases of cell cycle; Sub (G0/G1), G1, S, G2 and M. Cells in Sub (G0/G1) phase correspond to apoptotic cells.
Cells were gently harvested into pre-labelled centrifuge tubes and centrifuged at 450 g for 5 min, RT (low brake). The supernatants were removed carefully and discarded. 1 ml of 1×PBS was added to the pellet and resuspended gently to make homogenous suspension. Cells were centrifuged at 450 g for 5 min, RT (low brake). The supernatant was carefully removed leaving behind approximately 100 μl of PBS. Cells were resuspended gently yet thoroughly in residual PBS. The cells were fixed by adding Ice-cold 70% ethanol (100 μl) added dropwise into cells in each tube while vortexing at low speed Cells were stored at 4° C. for 24 h prior to staining.
Ethanol fixed cells were centrifuged at 450 g for 5 min, RT (low brake) the supernatant was carefully removed (not to touch the pellet) and discarded. 1 ml of 1×PBS was added into pellet and resuspended gently. Cells were incubated for 1 minute at RT. Cells were centrifuged at 450 g for 5 min, RT (low brake). (washing step) The supernatant was removed carefully leaving behind approx. 20 μl-50 μl of PBS. 200 μl of Cell Cycle reagent was added into each tube. Cells were resuspended gently and mixed. Cells were incubated for 30 min, RT, Dark. The stained samples were transferred into 96-well plates and acquired on flow cytometer (Guava technologies). Percentage of cells in Sub (G0/G1) phase were determined.
Percent inhibition in apoptotic cells=[(% Sub(G0/G1)cells in MPP+iodide alone) −(% Sub(G0/G1)cells in SEQ ID NO:1+MPP+iodide)/% Sub(G0/G1)cells in MPP+iodide alone]*100

Dopamine = experiment: Parkinson biomarker multiplex analysis/ELISA, MPP+ damaged SH-SY5Y; conditions: MPP + Iodide (2 mM)
Protocol: (§1) After overnight incubation as in the previous examples, cells were treated with recombinant lectin protein having SEQ ID NO: 1 at different concentrations ranging from 0.001 μg/ml-1 μg/ml for 24 h for Parkinson disease and 0.01 μg/ml-25 μg/ml for 24 h for Alzheimer's disease. • Parkinson Disease: After 24 h of pre-treatment with recombinant lectin protein having SEQ ID NO: 1, cells were exposed (MPP+) for another 24 h. Cells treated with MPP+Iodide were included as Control. […] The cells treated with Galantamine were included as positive Control.
(§2) The levels of markers were determined by multiplex analysis as: Cell culture supernatants were diluted (1:2) with Calibrator Diluent. 50 μl of standard or sample was added per well. 50 μl of the microparticle cocktail was added to each well of the microplate and covered with a foil plate sealer. The plate was incubated for 2 hours at room temperature on a horizontal orbital microplate shaker. The plate was washed using a magnetic device designed to accommodate a microplate. Washing was done by applying the magnet to the bottom of the microplate, allowing 1 minute before removing the liquid, filling each well with wash buffer (100 μl) and allowing 1 minute before removing the liquid again. 50 μl of diluted Biotin-Antibody Cocktail was added to each well. Covered the plate with a foil plate sealer and incubated for 1 hour at room temperature on the shaker. Repeated the wash step. 50 μl of diluted Streptavidin-PE was added to each well. The plate was securely covered with a foil plate sealer and incubated for 30 minutes at room temperature on the shaker. Repeated the wash step. The microparticles were resuspended by adding 100 μl of Wash Buffer to each well. The plate was incubated for 2 minutes on the shaker and read within 90 minutes using Magpix® multiplex machine. Levels of biomarkers for Parkinson's and Alzheimer's disease were estimated using Magpix® multiplex machine.
(§3) For Parkinson's the percent modulation in each sample was determined as follows:
(§4) [{Concentration of biomarkers(pg/ml) in SEQ ID NO:1+MPP+Iodide treated cells)−Concentration of biomarkers(pg/ml) in Control cells(MPP+Iodide alone treated)}/Concentration of biomarkers(pg/ml) in Control cells(MPP+Iodide alone treated)]*100

Serotonin = experiment: as above; conditions: MPP + Iodide (2 mM)
Protocol: as §1, §2, §3, §4

Calbindin D = experiment: as above; conditions: MPP + Iodide (2 mM)
Protocol: as §1, §2, §3, §4

S100b = experiment: as above; conditions: MPP + Iodide (2 mM)
Protocol: as §1, §2, §3, §4

ICAM1/CD54 = experiment: as above; conditions: MPP + Iodide (2 mM)
Protocol: as §1, §2, §3, §4

Park7/DJ-1 = experiment: as above; conditions: MPP + Iodide (2 mM)
Protocol: as §1, §2, §3, §4

SMILES: C#CCN(C)[C@H](C)Cc1ccccc1 [Deprenyl, reference compound]
- % Apoptotic cells (Anenxin + ve) (SH-SY5Y neuronal cells [1]; 10 μM): 3%
- % Decrease in Apoptotic cells (wrt MPP + iodide) (SH-SY5Y neuronal cells [1]; 10 μM): 27.2%
- % Apoptotic cells (Anenxin + ve) (SH-SY5Y neuronal cells [1]; 25 μM): 2.5%
- % Decrease in Apoptotic cells (wrt MPP + iodide) (SH-SY5Y neuronal cells [1]; 25 μM): 38.3%
- % Apoptotic cells (Anenxin + ve) (SH-SY5Y neuronal cells [1]; 100 μM): 2.9%
- % Decrease in Apoptotic cells (wrt MPP + iodide) (SH-SY5Y neuronal cells [1]; 100 μM): 28.4%
- % Apoptotic cells (SubG0/G1) (SH-SY5Y neuronal cells [2]; 10 μM): 2.9%
- % Decrease in Apoptotic cells (wrt MPP + iodide) (SH-SY5Y neuronal cells [2]; 10 μM): 12.8%
- % Apoptotic cells (SubG0/G1) (SH-SY5Y neuronal cells [2]; 25 μM): 2.4%
- % Decrease in Apoptotic cells (wrt MPP + iodide) (SH-SY5Y neuronal cells [2]; 25 μM): 28.3%
- % Apoptotic cells (SubG0/G1) (SH-SY5Y neuronal cells [2]; 100 μM): 2%
- % Decrease in Apoptotic cells (wrt MPP + iodide) (SH-SY5Y neuronal cells [2]; 100 μM): 42%
- % Change of Biomarkers markers (with respect to Control) Dopamine (Dopamine; 10 μM): 21.2%
- % Change of Biomarkers markers (with respect to Control) Dopamine (Dopamine; 50 μM): 37.7%
- % Change of Biomarkers markers (with respect to Control) Dopamine (Dopamine; 100 μM): −47.2%
- % Change of Biomarkers markers (with respect to Control) Serotonin (Serotonin; 10 μM): 9.1%
- % Change of Biomarkers markers (with respect to Control) Serotonin (Serotonin; 50 μM): 33%
- % Change of Biomarkers markers (with respect to Control) Serotonin (Serotonin; 100 μM): 17.1%
- % Change of Biomarkers markers (with respect to Control) Calbindin D (Calbindin D; 10 μM): 5%
- % Change of Biomarkers markers (with respect to Control) Calbindin D (Calbindin D; 50 μM): 0%
- % Change of Biomarkers markers (with respect to Control) Calbindin D (Calbindin D; 100 μM): 3.3%
- % Change of Biomarkers markers (with respect to Control) S100b (S100b; 10 μM): −6.7%
- % Change of Biomarkers markers (with respect to Control) S100b (S100b; 50 μM): −6.5%
- % Change of Biomarkers markers (with respect to Control) S100b (S100b; 100 μM): −6.5%
- % Change of Biomarkers markers (with respect to Control) ICAM1/CD54 (ICAM1/CD54; 10 μM): 12.9%
- % Change of Biomarkers markers (with respect to Control) ICAM1/CD54 (ICAM1/CD54; 50 μM): −23.7%
- % Change of Biomarkers markers (with respect to Control) ICAM1/CD54 (ICAM1/CD54; 100 μM): −37%
- % Change of Biomarkers markers (with respect to Control) Park7/DJ-1 (Park7/DJ-1; 10 μM): −6.8%
- % Change of Biomarkers markers (with respect to Control) Park7/DJ-1 (Park7/DJ-1; 50 μM): −7.9%
- % Change of Biomarkers markers (with respect to Control) Park7/DJ-1 (Park7/DJ-1; 100 μM): −9.2%
